Assays:
TH-positive cells = test: Immunohistochemical staining of tyrosine hydroxylase (TH) neurons, MPTP-intoxicated mice; format: in vivo, C57BL/6 mice
Protocol: Brain sections (4 μm thick) were deparaffinized in xylene-alcohol series for 5 min each, with subsequent recovery of antigenic sites on steam fluent (pot value) for 30 min. The slides were washed twice for 5 min with 1× phosphate-buffered saline (PBS) and then immersed in 0.3% hydrogen peroxide for 30 min at 25° C. to block endogenous peroxidase activity. The sections were incubated with 10% goat serum (for polyclonal antibodies) for 30 min and then incubated at 4° C. with the TH primary antibody (Abcam, Cambridge, UK) for 24 h. Subsequently, all samples were incubated with biotinylated goat anti-rabbit IgG (H+L) horseradish peroxidase (HRP)-conjugated antibodies (Zymax). The sections were incubated with 3,3-diaminobenzidine (Vectro Laboratories, Inc., Burlingame, Calif., USA) for 10 min at 37° C. Finally, the tissue sections were counterstained with hematoxylin for 2 min, dehydrated with an alcohol-xylene series, and mounted with coverslips using Permount mounting medium (Thermo Fisher Scientific). The specimens were examined using a Nikon Eclipse TS100 microscope (Nikon, Tokyo, Japan) at 200× magnification, and the microscopy images were analyzed using the OptiView image analysis software (Korea Lab Tech, Seongnam-si, Republic of Korea). Immunopositive neurons were counted manually.

iNos [1] = format: in vivo, C57BL/6 mice; conditions: brain
Text: (§1) All experimental animals were approved by the Institutional Animal Care and Use Committee at Konkuk University (IACUC approval number, KU18045), Seoul, Republic of Korea.

p-IκB-α [2] = test: Western blotting of brain, MPTP-treated mice: p-IκB-α; format: in vivo, C57BL/6 mice; conditions: Levodopa
Text: as §1

Bcl-2 = test: Western blotting of brain, MPTP-treated mice: Bcl-2; format: in vivo, C57BL/6 mice; conditions: Levodopa (positive control)
Text: as §1

iNOS [3] = test: Western blotting of midbrain, MPTP-treated rats: iNOS; format: in vivo, SD rats; conditions: levodopa 10 mg/kg
Protocol: (§3) Four-week-old male SD rats were purchased from Rion Bio, Inc. and were housed in a temperature-controlled (21-22° C.) and light-controlled (12 h light/dark cycle) environment with 70% humidity; they were given free access to water and rodent chow. […] The brains were dissected and analyzed by histological and western blotting analysis.
(§4) Rat brains were lysed in radioimmunoprecipitation assay lysis buffer containing protease inhibitor (Roche, Mannheim, Germany) and centrifuged at 10,000×g for 30 min at 4° C. Total protein levels were determined using a Bio-Rad protein kit (Bio-Rad, Hercules, Calif., USA). The proteins were separated by electrophoresis in a 10-15% sodium dodecyl sulfate-polyacrylamide gel and transferred onto the Immobilon-P transfer membrane (EMD Millipore Co., Bedford, Mass., USA). The membrane was blocked with 5% bovine serum albumin (Sigma-Aldrich). […] Protein bands were detected using a chemiluminescence method (Thermo Fisher Scientific) by a C-DiGit Blot Scanner (Li-COR, Lincoln, Nebr., USA), and their densities were quantified using ImageJ (NIH, Rockville, Md., USA). […]

COX-2 = format: in vivo, SD rats
Protocol: as §3, §4

p-IκB-α [4] = test: Western blotting of midbrain, MPTP-treated rats: p-IκB-α; format: in vivo, SD rats; conditions: levodopa 10 mg/kg
Protocol: as §3, §4

Mac-1 [5] = tested on: Mac-1
Protocol: as §3, §4

SH-SY5Y cells = test: MTT cell viability in MPTP-treated SH-SY5Y cells; format: cell-based, human; conditions: 24 h
Protocol: 1-Methyl-4-phenylpyridinium (MPP+) induces a severe parkinsonian-like syndrome and a significant reduction in dopaminergic cells by the selective inhibition of complex I in the mitochondrial electron transport chain.
(§2) Human Neuroblastoma Cells (SH-SY5Y) (Korean Cell Bank, Seoul, Korea) were cultured in Dulbecco's modified Eagle's medium containing 10% fetal bovine serum (Hyclone, Logan, Utah, USA) and 1% penicillin-streptomycin (GIBCO, Grand Island, N.Y., USA) in a humidified incubator with 5% CO2 at 37° C.
SH-SY5Y ([…]) cells were cultured in a 96-well plate, and cell viability was determined using the MTT (Promega, Madison, Wis., USA) assay as described previously. […] The MTT solution was then added, followed by incubation at 37° C. for 4 h. The supernatant was removed, and the formed formazan crystals were dissolved in dimethyl sulfoxide. The absorbance of the resulting solution was measured at 540 nm using a UVM 340 microplate reader (Biochrom Asys, Cambridge, UK).

Mac-1 [6] = test: Western blotting, MPTP-treated SH-SY5Y cells: Mac-1; format: cell-based, human; conditions: 2-mM MPTP-intoxicated SH-SY5Y cells
Protocol: as §2

cytochrome C [7] = test: Western blotting, MPTP-treated SH-SY5Y cells: cytochrome C; format: cell-based, human; conditions: MPTP-intoxicated SH-SY5Y cells
Protocol: as §2

SOD = format: in vivo, C57BL/6 mice; conditions: MPTP-treated mice, brain
Text: as §1

cytochrome C [8] = format: in vivo, C57BL/6 mice; conditions: MPTP-intoxicated mice, brain
Text: as §1

Compound	numbers of TH-positive cells vs MPTP-intoxicated group (TH-positive cells; MPTP mice, levodopa 2 mg/kg oral)	elevation of iNos expression (iNos [1]; MPTP mice, Levodopa treatment)	increased p-IκB-α level (p-IκB-α [2])	effects of MPTP on Bcl-2 protein expression (Bcl-2)	elevated iNOS expression inhibited vs MPTP control (iNOS [3])	expression level of COX-2 downregulated (COX-2; MPTP rats, levodopa 10 mg/kg)	p-IκB-α level reduced, compared to MPTP control group (p-IκB-α [4])	elevated level of MAC-1 attenuated vs MPTP control (Mac-1 [5]; MPTP rats, levodopa 10 mg/kg)	cell death (SH-SY5Y cells; 1 mM MPTP)	cell death (SH-SY5Y cells; 2 mM MPTP)	Mac-1 protein expression level elevated by, compared with normal cells (Mac-1 [6])	protein expression level of cytochrome C upregulated (cytochrome C [7])	number of TH-positive cells reduced, compared with sham group (TH-positive cells; MPTP-intoxicated mice, 20 mg/kg/day)	expression level of SOD lower than in sham group (SOD)	protein expression level of cytochrome C upregulated by, compared with sham mice (cytochrome C [8])	iNos protein expression level elevated by, compared with sham group (iNos [1]; MPTP-treated mice)	COX-2 protein overexpressed, with reference to sham operated group (COX-2; MPTP-intoxicated rats)	expression of Mac-1 protein elevated, compared with sham groups (Mac-1 [5]; MPTP control rats)
N[C@@H](Cc1ccc(O)c(O)c1)C(=O)O [Levodopa]	significantly elevated	inhibited	slightly restored	significantly reversed	2.9 fold	1.7 fold	1.2 fold	1.9 fold	–	–	–	–	–	–	–	–	–	–
CN1CC=C(c2ccccc2)CC1 [MPTP, 1-methyl-4-phenyl-1,2,3,6-tetrahydropyridine]	–	–	–	–	–	–	–	–	29.05%	68.89%	0.8 folds	10 folds	more than two-fold	2.3 folds	0.54 folds	0.44 folds	6 fold	6.4 fold

Reference: patent publication US11638736B2, “Compositions for preventing or treating diseases or disorders associated with neuro-inflammation, neuro-apoptosis, or neuro- oxidative damage and uses thereof” (priority 2018, dated 2023)
